“And” between values parts separate entries of the source, which are not always exact repeats. Equal values may be shown once.
Conditions: Crystal, Calculated from knudsen effusion weight loss

[Pd] [palladium]
Conditions | vapor or sublimation pressure
1473 K | 1e-05 kPa
1498 K | 2e-05 kPa
1523 K | 3e-05 kPa
1548 K | 6e-05 kPa
1573 K | 9e-05 kPa
1576 K | 9e-05 kPa
1598 K | 0.000141 kPa
1600 K | 0.00011 kPa
1626 K | 0.0002 kPa
1648 K | 0.00028 kPa
1650 K | 0.00026 kPa
1660 K | 0.0005 kPa
1673 K | 0.0004 kPa and 0.0004 kPa and 0.0004 kPa
1676 K | 0.00044 kPa
1685 K | 0.00067 kPa
1698 K | 0.0005 kPa and 0.00076 kPa and 0.00058 kPa
1700 K | 0.00061 kPa
1706 K | 0.0009 kPa
1723 K | 0.00108 kPa [middle of 4 runs]
1726 K | 0.00094 kPa
1740 K | 0.0012 kPa
1748 K | 0.0016 kPa and 0.0016 kPa and 0.0012 kPa
1750 K | 0.00131 kPa
1773 K | 0.002 kPa and 0.0022 kPa
1776 K | 0.002 kPa
1798 K | 0.0024 kPa and 0.0029 kPa
1800 K | 0.0027 kPa
1802 K | 0.0024 kPa
1806 K | 0.002 kPa
1823 K | 0.004 kPa
1825 K | 0.0037 kPa
1840 K | 0.0047 kPa
1848 K | 0.0048 kPa
1850 K | 0.0053 kPa
1860 K | 0.0061 kPa
1873 K | 0.008 kPa and 0.0076 kPa
1883 K | 0.0066 kPa
1885 K | 0.0082 kPa
1898 K | 0.01 kPa and 0.0094 kPa
1900 K | 0.0098 kPa
1910 K | 0.0109 kPa
1912 K | 0.0111 kPa
1923 K | 0.013 kPa and 0.014 kPa
1925 K | 0.0125 kPa
1940 K | 0.015 kPa
1942 K | 0.0157 kPa
1948 K | 0.018 kPa and 0.017 kPa and 0.021 kPa
1950 K | 0.0174 kPa and 0.0166 kPa
1954 K | 0.021 kPa
1963 K | 0.02 kPa and 0.0201 kPa
1965 K | 0.0203 kPa and 0.0204 kPa
1970 K | 0.024 kPa
1972 K | 0.022 kPa
1973 K | 0.022 kPa and 0.024 kPa and 0.02 kPa

Reference: the NIST ThermoML archive (doi:10.1021/je050464i)
